Laboratory results reported in paper PMC10957775, “Integrated chemical characterization, metabolite profiling, and pharmacokinetics analysis of Zhijun Tangshen Decoction by UPLC-Q/TOF-MS” (Frontiers in Pharmacology, 2024).
Read-outs that look alike come from different tables or passages of the source.

Legend:
[1] = Multi-compound pharmacokinetics of ZJTSD in rat serum, semi-quantitative UPLC-Q/TOF-MS (peak area ratio versus time, non-compartmental); conditions: for pharmacokinetic behavior compared with other prototype compounds and metabolites (in words): non-compartmental analysis; for AUC (in words): peak area ratio versus time
Method: Thirty male Sprague–Dawley rats (200 ± 20 g) were purchased from the Nanjing Qinglongshan Experimental Animal Center (Nanjing, China). […] All rats were divided randomly into two groups: ZJTSD-dosed group (n = 27) and control group (n = 3). The ZJTSD-dosed group was given the ZJTSD solution by gavage (i.g.) at a dosage of 1 mL/100 g body weight of rats, and the control group was given 0.9% normal saline at the same dose, twice a day for a week. After the last administration, the blood was collected from the hepatic portal vein at 15 min, 30 min, 1 h, 2 h, 4 h, 6 h, 8 h, 12 h, and 24 h, and 3 rats were taken at each time point.
The blood samples of rats were centrifuged at 4,000 rpm for 10 min to obtain the serum. The serum sample (1 mL) was processed with a 3-fold volume using methanol for protein precipitation, with epicoprostanol serving as the internal standard (digoxin and clarithromycin). After vortexing for 3 min, the mixture was centrifuged at 18,000 rpm for 10 min. Subsequently, the supernatant was evaporated at 45°C using a vacuum concentrator. After evaporating the solvent, 150 μL of methanol/water (1:1, v/v) was added, vortexed, sonicated, and then centrifuged at 18,000 rpm for 10 min at 4°C. The resulting supernatant was used for further analysis.
Liquid chromatographic separation was performed using an AB SCIEX LC™ 2.0 system (AB SCIEX, United States) fitted with an Acquity UPLC BEH C18 column (100 mm × 2.1 mm, 1.7 μm; Ireland). The mobile phases in negative and positive ion modes consisted of 0.1% FA aqueous solution (A) and acetonitrile containing 0.1% FA (B). The program of the elution gradient was set as follows: 0∼5 min, 2%∼35 %B; 5∼7 min, 35%∼50%; 7∼10 min, 50%∼70%; 10∼15 min, 70%∼90 %B; 15∼18 min, 90%∼90 %B; 18∼18.5 min, 90%∼2 %B; and 18.5∼20 min, 2%∼2 %B. The injection volume was 3 µL. The flow rate and the column temperature were set at 0.3 mL/min and 40°C, respectively.
The mass spectrometry analysis was performed on a SCIEX ZenoTOF™ 7600 system (AB SCIEX, United States), which was calibrated in the high-sensitivity mode for every 10 samples. Spectra were acquired in the TOF/MS-IDA-TOF MS/MS mode with the ESI source operating in positive and negative ion modes. MS parameters were set as follows: ionization source, ESI; spray voltage, 5,500 kV/–4,500 kV; collision energy, 40 V/–40 V; declustering potential, 80 V/–80 V; ion source temperature, 550°C; and scan range, 100–1250 m/z. Data acquisition and processing were performed using SCIEX OS 2.2 and PeakView 2.2.
A semi-quantitative method was adopted based on the correction peak area versus time ([Wang et al., 2011]; [Lin et al., 2019]). The mean serum time-course profile of pharmacokinetics based on the peak area ratio versus time was plotted using Origin 2018. The kinetic analysis of the peak area ratio (×1,000)–time curve was calculated using Phoenix WinNonlin 8.1 (Phoenix, American) software and illustrated.

[2] = parameters: AUC(0→t) / Cmax: unit not given beside the values; conditions: rat, in vivo
[3] = metabolites of ZJTSD in rat serum, mean±SD, n=3, in h
[4] = male, Sprague-Dawley, rat, serum (hepatic portal vein blood), po, 1 mL/100 g body weight
[5] = male, Sprague-Dawley, rat, serum (hepatic portal vein blood), po, 1 mL/100 g body weight, t1/2, prototype compounds of ZJTSD absorbed into rat serum, mean±SD, n=3
[6] = male, Sprague-Dawley, rat, serum (hepatic portal vein blood), po, 1 mL/100 g body weight, t1/2, metabolites of ZJTSD in rat serum, mean±SD, n=3
[7] = male, Sprague-Dawley, rat, serum (hepatic portal vein blood), po, 1 mL/100 g body weight, elimination half-life (t1/2), rat hepatic portal vein serum after oral ZJTSD, semi-quantitative peak area ratio
[8] = prototype compounds of ZJTSD absorbed into rat serum, mean±SD, n=3, in h

Row | Structure (SMILES) | MRT last [1, 4] [h] | Tmax [1, 4] [h] | half-life [1, 5] [h] | further results
1 | O=CCC(O)(CC(=O)O)C(=O)O (stereo not drawn) [M90] | – | – | – | MRT(0→t) [1, 3]: 7.25±1.46; Tmax [1, 3]: 1.08±0.88; t1/2 [1, 3]: 7.50±1.85; Tmax ([1]; rat hepatic portal vein serum after oral ZJTSD twice a day for a week, semi-quantitative peak area ratio): ≤ 3.5 h; elimination half-life (t1/2) ([1]; rat hepatic portal vein serum after oral ZJTSD, semi-quantitative peak area ratio): > 7.5 h; time to peak (in words) ([1]; rat serum after oral ZJTSD): faster time to peak; pharmacokinetic behavior compared with other prototype compounds and metabolites (in words) ([1]; rat serum after oral ZJTSD): better pharmacokinetic behavior; AUC (in words) ([1]; rat serum after oral ZJTSD): greater
2 | COc1ccc2c(c1OC)O[C@H]1c3ccc(O)cc3OC[C@@H]21 [P8, Methylnissolin] | – | – | – | AUC(0→t) [2]: 3.73±0.45; Cmax [2]: 0.77±0.18; MRT(0→t) [2]: 6.10±1.53; Tmax [2]: 0.42±0.14; t1/2 [2]: 4.16±2.01
3 | O=C(O)c1cc(O)c2c(c1)C(=O)c1cccc(O)c1C2=O [P18, Rhein] | 3.55 ± 0.57 | 1.67 ± 2.02 | 4.7 ± 0.9 | detection in serum / absorbed form ([1]; rat serum after oral ZJTSD): absorbed as prototype compounds
4 | N[C@@H](Cc1c[nH]c2ccccc12)C(=O)O [P23, Tryptophan] | 12.4 ± 0.14 | 1.08 ± 0.88 | – | –
5 | O=C(O)/C=C/c1ccc(O)cc1 [M91] | – | – | – | MRT(0→t) [1, 3]: 3.97±0.59; Tmax [1, 3]: 1.58±2.10; t1/2 [1, 3]: 3.23±0.95
6 | COc1c(O)c(C)cc2c1C(=O)c1ccc(O)cc1C2=O [P21, 2,6-Dihydroxy-1-methoxy-3-methylanthraquinone] | 4.27 ± 0.55 | 2.5 ± 3.04 | 3.45 ± 1.44 | –
7 | O=C(O)[C@@H]1CCCN1 [P26, Proline] | 11.1 ± 0.44 | 0.5 | 47.1 ± 35.8 | –
8 | Cc1cc(=O)c2c(C)cc(O)cc2o1 [P1, 2,5-Dimethyl-7-hydroxychromone] | 3.43 ± 0.76 | 0.67 ± 0.29 | 2.7 ± 0.14 | level of exposure in the blood (in words) ([1]; rat serum after oral ZJTSD): higher level of exposure; pharmacokinetic behavior compared with other prototype compounds and metabolites (in words) ([1]; rat serum after oral ZJTSD): better pharmacokinetic behavior
9 | N[C@@H](Cc1c[nH]cn1)C(=O)O [P24, Histidine] | 9.9 ± 0.35 | 2.75 ± 2.95 | 21.1 ± 10.2 | –
10 | Cc1cc(O)cc2oc(CC(C)O)cc(=O)c12 (stereo not drawn) [P2, 7-Hydroxy-2-(2-hydroxypropyl)-5-methylchromen-4-one] | 3.45 ± 0.58 | 0.67 ± 0.29 | 2.17 ± 0.12 | level of exposure in the blood (in words) ([1]; rat serum after oral ZJTSD): higher level of exposure; pharmacokinetic behavior compared with other prototype compounds and metabolites (in words) ([1]; rat serum after oral ZJTSD): better pharmacokinetic behavior
11 | COc1c(-c2ccccc2)oc2cc(O)cc(O)c2c1=O [P3, 3-Methoxy-5,7-dihydroxyflavone] | 4.8 ± 0.38 | 1.83 ± 1.89 | 4.04 ± 1.91 | –
12 | C=Cc1ccc(O)c(OC)c1 [P42, 4-Vinyl-2-methoxyphenol] | 10.2 ± 0.64 | 10.7 ± 2.31 | – | –
13 | O=Cc1c[nH]c2ccccc12 [P46, Indole-3-carbaldehyde] | 12.7 ± 0.3 | 12.1 ± 11.9 | – | –
14 | C[N+](C)(C)CC(=O)O [P35, Betaine] | 10.8 ± 0.64 | 6.67 ± 4.62 | 24.2 ± 14.5 | –
15 | O=C1c2cccc(O)c2C(=O)c2c(O)cc(CO)cc21 [P17, Aloe-emodin] | 5.2 ± 3.03 | 4.17 ± 3.75 | 1.73 | detection in serum / absorbed form ([1]; rat serum after oral ZJTSD): absorbed as prototype compounds
16 | CC(=O)Cc1cc(O)cc2oc(C)cc(=O)c12 [P5, 2-Methyl-5-acetonyl-7-hydroxychromone] | 4.23 ± 0.55 | 0.67 ± 0.29 | 3.09 ± 0.19 | –
17 | CC1CCC2(C(=O)O)CCC3(C)C(=CCC4C5(C=O)CC(O)C(O)C(C)(C)C5CCC43C)C2C1(C)O (stereo not drawn) [M77] | – | – | – | half-life [1, 6]: 10.8 ± 4.71 h
18 | O=C(O)CC(O)(CC(=O)O)C(=O)O [P40, Citric acid] | 9.56 ± 1.76 | 3.33 ± 1.16 | 24.7 ± 23.6 | MRT [1, 4]: 9.56 h; half-life [1, 7]: 21 h; AUC (in words) ([1]; rat serum after oral ZJTSD): largest
19 | O=C1CCCCN1 [P47, 2-Piperidone] | 11.8 ± 0.21 | 12 | – | –
20 | CC(=O)/C=C/c1ccc(CO)o1 [P51, (E)-4-[5-(Hydroxymethyl)-2-furanyl]-3-butene-2-one] | 4.2 ± 0.25 | 4.67 ± 1.16 | – | –

Row | Structure (SMILES) | MRT last [1, 4] [h] | Tmax [1, 4] [h] | half-life [1, 5] [h] | further results
21 | O=C(CCc1ccc(O)cc1)c1ccc(O)cc1O [M11] | – | – | – | half-life [1, 6]: 7.01 ± 2.29 h
22 | COc1cc(-c2coc3cc(O)ccc3c2=O)ccc1O [P10, 7,4'-Dihydroxy-3'-methoxyisoflavone] | 10.8 ± 0.72 | 2.08 ± 1.88 | 67.3 ± 4.4 | –
23 | O=C1c2ccccc2C(=O)c2cc(CO)c(O)cc21 [P15, 2-Hydroxy-3-hydroxymethylanthraquinone] | 4.81 ± 0.31 | 1.67 ± 2.02 | – | –
24 | O=C(O)/C=C/c1ccccc1 [P36, Cinnamic acid] | 5.15 ± 0.25 | 1.58 ± 2.1 | 25.8 ± 26.4 | –
25 | COC(=O)C1CCC(=O)N1 (stereo not drawn) [P33, 5-Oxo-pyrrolidine-2-carboxylic acid methyl ester] | 13.9 ± 1.35 | 14 ± 9.17 | – | –
26 | Cc1cc2c(cc1O)C(=O)c1ccccc1C2=O [P11, 2-Methyl-3-hydroxyanthraquinone] | 3.23 ± 0.59 | 0.67 ± 0.29 | 4.29 ± 2.71 | level of exposure in the blood (in words) ([1]; rat serum after oral ZJTSD): higher level of exposure; pharmacokinetic behavior compared with other prototype compounds and metabolites (in words) ([1]; rat serum after oral ZJTSD): better pharmacokinetic behavior
27 | CCCCCCCCCCCCCCCCCC(=O)OC[C@@H](O)COP(=O)([O-])OCC[N+](C)(C)C [P45, 1-O-Octadecanoyl-sn-glycero-3-phosphocholine] | 9.91 ± 0.56 | 2 | 21.9 ± 6.81 | MRT [1, 4]: 9.91 h; half-life [1, 7]: 21 h; pharmacokinetic behavior compared with other prototype compounds and metabolites (in words) ([1]; rat serum after oral ZJTSD): better pharmacokinetic behavior
28 | O=C(O)c1ccc(O)cc1 [P41, p-Hydroxybenzoic acid] | 9.15 ± 0.95 | 2.75 ± 2.17 | 19.4 ± 2.9 | pharmacokinetic behavior compared with other prototype compounds and metabolites (in words) ([1]; rat serum after oral ZJTSD): better pharmacokinetic behavior
29 | Cc1cc(O)c2c(c1)C(=O)c1ccccc1C2=O [M63] | – | – | – | half-life [1, 6]: 5.43 ± 2.61 h
30 | O=C1CCCn2c(CO)ccc21 [P34, Polygonatine A] | – | – | – | MRT(0→t) [1, 8]: 3.96±0.32; t1/2 [1, 8]: 3.76±1.03
31 | COC(=O)c1ccc(O)cc1 [M89] | – | – | – | MRT(0→t) [1, 3]: 5.35±0.92; Tmax [1, 3]: 3.00±1.73
32 | COc1cc2ccc(=O)oc2cc1O [P38, Scopoletin] | 4.36 ± 1.52 | 0.5 | 4.77 ± 1.43 | –
33 | COc1c(O)ccc2c1C(=O)c1ccccc1C2=O [P14, 2-Hydroxy-1-methoxyanthraquinone] | 4.24 ± 0.57 | 0.67 ± 0.29 | 3.5 ± 2.06 | level of exposure in the blood (in words) ([1]; rat serum after oral ZJTSD): higher level of exposure; pharmacokinetic behavior compared with other prototype compounds and metabolites (in words) ([1]; rat serum after oral ZJTSD): better pharmacokinetic behavior
34 | CSCC[C@H](N)C(=O)O [P25, L-Methionine] | 12.5 ± 1.36 | 2.17 ± 3.32 | – | –
35 | O=c1ccc2cc(O)c(O)cc2o1 [P39, Esculetin] | 4.92 ± 0.8 | 0.33 ± 0.14 | 4.4 ± 3.9 | –
36 | O=C(O)C=Cc1ccc(O)cc1 [P37, p-Coumaric acid] | 3.97 ± 0.59 | 1.58 ± 2.1 | 3.23 ± 0.95 | level of exposure in the blood (in words) ([1]; rat serum after oral ZJTSD): higher level of exposure; pharmacokinetic behavior compared with other prototype compounds and metabolites (in words) ([1]; rat serum after oral ZJTSD): better pharmacokinetic behavior
37 | OC1COCC1O (stereo not drawn) [M87] | – | – | – | MRT(0→t) [1, 3]: 9.59±1.35; Tmax [1, 3]: 1.17±0.76; t1/2 [1, 3]: 17.68±16.89
38 | Cc1cc(=O)c2c(CC(=O)O)cc(O)cc2o1 [P4, 2-Methyl-5-carboxymethyl-7-hydroxychromone] | 5.29 ± 0.3 | 1.67 ± 2.02 | 3.14 ± 0.86 | –
39 | CCCCCCCCCCCCCCCCOC[C@@H](O)COP(=O)([O-])OCC[N+](C)(C)C [P44, 1-O-Hexadecyl-sn-glycero-3-phosphocholine] | 11.9 ± 0.91 | 0.58 ± 0.38 | 33.1 ± 13.3 | –
40 | COc1cc(C)c2c(=O)cc(C)oc2c1 [P6, 2,5-Dimethyl-7-methoxychromone] | 12.1 ± 0.02 | 4.75 ± 4.02 | – | –
